Among the data in patent US10556907B2 (AbbVie Inc., priority 2015, dated 2020) are EC50 values, retold here.

Common to all, as to assay: Method 1: intracellular Ca2+ release (FLIPR, Calcium 5) in recombinant CHO-K1 cells
Common to all, as to assay type: cell-based

One test concerns the target T1, human S1PR3 receptor (Homo sapiens, UniProt Q99500).
T1 construct: host or cells: CHO-K1
The note with it: (1): determined with method 1; read-out: S1P3 EC50. The gist of the method:
(§1)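 CHO-K1 cells co-expressing the receptor, aequorin and Gq/i5 were loaded with Calcium 5 dye for 1 h at 37 °C, adapted 45 min to RT, then given serially diluted compound in HBSS/20 mmol/L Hepes/2.5 mmol/L probenecid/0.1% BSA, pH 7.4. FLIPR fluorescence was read; EC50 came from nonlinear fits normalized to phospho-fingolimod.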

The next test concerns the target T2, human S1PR1 receptor (Homo sapiens, UniProt P21453).
T2 construct: host or cells: CHO-K1
The note with it: (1): determined with method 1; read-out: S1P1 EC50. The essentials:
as §1

For another test, the target named is T3, human S1PR4 receptor (Homo sapiens, UniProt O95977).
T3 construct: host or cells: CHO-K1
T3 sequence (O95977 1-384): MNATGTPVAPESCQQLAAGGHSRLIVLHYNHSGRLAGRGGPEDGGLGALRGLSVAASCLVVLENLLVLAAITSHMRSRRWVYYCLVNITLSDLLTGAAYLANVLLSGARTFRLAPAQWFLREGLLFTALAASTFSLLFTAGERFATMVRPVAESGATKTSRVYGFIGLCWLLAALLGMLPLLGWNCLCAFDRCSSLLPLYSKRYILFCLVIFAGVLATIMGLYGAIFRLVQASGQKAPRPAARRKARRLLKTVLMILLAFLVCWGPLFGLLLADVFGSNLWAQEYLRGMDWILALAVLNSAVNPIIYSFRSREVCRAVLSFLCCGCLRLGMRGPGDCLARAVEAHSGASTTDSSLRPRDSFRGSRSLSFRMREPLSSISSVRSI
To be noted: (1): determined with method 1; read-out: S1P4 EC50. The gist of the method:
as §1

The target of another test is T4, human S1PR5 receptor (Homo sapiens, UniProt Q9H228).
T4 construct: host or cells: CHO-K1
T4 sequence (Q9H228 whole entry): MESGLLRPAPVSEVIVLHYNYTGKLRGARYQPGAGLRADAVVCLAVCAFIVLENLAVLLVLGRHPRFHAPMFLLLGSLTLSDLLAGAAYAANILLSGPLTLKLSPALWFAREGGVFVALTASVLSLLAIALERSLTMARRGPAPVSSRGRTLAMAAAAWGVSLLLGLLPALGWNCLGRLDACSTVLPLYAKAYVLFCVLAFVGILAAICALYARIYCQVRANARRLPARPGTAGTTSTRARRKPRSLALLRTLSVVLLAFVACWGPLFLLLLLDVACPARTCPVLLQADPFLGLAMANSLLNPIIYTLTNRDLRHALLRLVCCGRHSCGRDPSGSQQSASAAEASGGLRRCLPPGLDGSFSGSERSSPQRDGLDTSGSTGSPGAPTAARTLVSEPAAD
To be noted: agonist potency, determined with method 1 (symbols A-D); read-out: S1P5 EC50 range. The essentials:
as §1

Where a name gives a salt, the structure may show the parent alone.

T2 sequence (P21453 whole entry): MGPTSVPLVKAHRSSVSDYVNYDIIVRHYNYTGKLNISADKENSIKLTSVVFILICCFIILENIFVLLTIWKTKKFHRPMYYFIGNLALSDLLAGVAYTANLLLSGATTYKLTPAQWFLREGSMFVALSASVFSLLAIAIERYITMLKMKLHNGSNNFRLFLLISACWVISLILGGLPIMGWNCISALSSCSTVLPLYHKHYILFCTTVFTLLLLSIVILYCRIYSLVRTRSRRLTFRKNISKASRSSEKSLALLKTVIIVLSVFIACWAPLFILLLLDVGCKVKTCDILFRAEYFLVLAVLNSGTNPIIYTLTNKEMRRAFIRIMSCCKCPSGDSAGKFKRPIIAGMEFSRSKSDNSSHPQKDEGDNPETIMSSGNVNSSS
T1 sequence (Q99500 whole entry): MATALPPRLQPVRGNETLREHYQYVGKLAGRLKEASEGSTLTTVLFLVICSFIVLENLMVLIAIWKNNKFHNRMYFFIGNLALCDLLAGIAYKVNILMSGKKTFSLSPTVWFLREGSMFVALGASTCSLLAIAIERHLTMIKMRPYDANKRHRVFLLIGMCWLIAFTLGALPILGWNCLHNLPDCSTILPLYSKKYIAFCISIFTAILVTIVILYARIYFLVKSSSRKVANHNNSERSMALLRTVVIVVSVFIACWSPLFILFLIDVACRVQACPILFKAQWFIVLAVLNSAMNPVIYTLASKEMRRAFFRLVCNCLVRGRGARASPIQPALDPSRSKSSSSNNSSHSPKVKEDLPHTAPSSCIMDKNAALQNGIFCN

For the compound `CC(CC(=O)O)CN1CCc2nc(-c3ccc(OCc4ccc(Cl)c(Cl)c4)cc3F)ncc2C1` (stereo not drawn) [Compound 271, 4-[2-[4-[(3,4-dichlorophenyl)methoxy]-2-fluoro-phenyl]-7,8-dihydro-5H-pyrido[4,3-d]pyrimidin-6-yl]-3-methyl-butanoic acid 2,2,2-trifluoroacetic acid salt], the EC50 at human S1PR3 receptor was greater than 1000 nM; at human S1PR1 receptor, greater than 1000 nM; on human S1PR4 receptor, greater than 1000 nM; at human S1PR5 receptor, 10 to 100 nM.

For the compound `O=C(O)CCN1CCc2nc(-c3ccc(OCc4ccc(OC(F)(F)F)cc4)cc3)ncc2C1` [Compound 85, 3-(2-(4-((4-(trifluoromethoxy)benzyl)oxy)phenyl)-7,8-dihydropyrido[4,3-d]pyrimidin-6(5H)-yl)propanoic acid], the EC50 on human S1PR3 receptor is greater than 1000 nM; on human S1PR1 receptor, greater than 1000 nM; at human S1PR4 receptor, greater than 1000 nM; at human S1PR5 receptor, less than 10 nM.

As to `CC(CC(=O)O)CN1CCc2nc(-c3ccc(CCc4ccc(Cl)cc4F)cc3)ncc2C1` (stereo not drawn) [Compound 250, 4-(2-(4-(4-chloro-2-fluorophenethyl)phenyl)-7,8-dihydropyrido[4,3-d]pyrimidin-6(5H)-yl)-3-methylbutanoic acid], the EC50 on human S1PR3 receptor is greater than 1000 nM; at human S1PR1 receptor it was greater than 1000 nM; on human S1PR4 receptor, greater than 1000 nM; at human S1PR5 receptor, less than 10 nM.

As to `O=C(O)CCN1CCc2nc(-c3ccc(OCc4cccc(C(F)F)c4)cc3)ccc2C1` [Compound 159, 3-(2-(4-((3-difluoromethylbenzyl)oxy)phenyl)-7,8-dihydro-1,6-naphthyridin-6(5H)-yl)propanoic acid], the EC50 at human S1PR3 receptor is greater than 1000 nM; at human S1PR1 receptor it was greater than 1000 nM; at human S1PR4 receptor it was greater than 1000 nM; on human S1PR5 receptor, less than 10 nM.

`O=C(O)C1CC(N2CCc3nc(C#Cc4ccccc4)ccc3C2)C1` (stereo not drawn) [Compound 119, 3-(2-(phenylethynyl)-7,8-dihydro-1,6-naphthyridin-6(5H)-yl)cyclobutanecarboxylic acid]: the EC50 at human S1PR3 receptor was greater than 1000 nM; on human S1PR1 receptor it was greater than 1000 nM; at human S1PR4 receptor, greater than 1000 nM; at human S1PR5 receptor it was 1000 to 10000 nM.

As for `CC(CC(=O)O)CN1CCc2nc(-c3ccc(OCc4ccc(F)c(F)c4)cc3)ncc2C1` (stereo not drawn) [Compound 228, 4-(2-(4-((3,4-difluorobenzyl)oxy)phenyl)-7,8-dihydropyrido[4,3-d]pyrimidin-6(5H)-yl)-3-methylbutanoic acid], the EC50 at human S1PR3 receptor is greater than 1000 nM; at human S1PR1 receptor, greater than 1000 nM; on human S1PR4 receptor, greater than 1000 nM; at human S1PR5 receptor, less than 10 nM.

Regarding `CC(CC(=O)O)CN1CCc2nc(-c3ccc(OCc4ccccc4Cl)cc3F)ncc2C1` (stereo not drawn) [Compound 284, 4-[2-[4-[(2-chlorophenyl)methoxy]-2-fluoro-phenyl]-7,8-dihydro-5H-pyrido[4,3-d]pyrimidin-6-yl]-3-methyl-butanoic acid 2,2,2-trifluoroacetic acid salt], the EC50 on human S1PR3 receptor was greater than 1000 nM; at human S1PR1 receptor, greater than 1000 nM; at human S1PR4 receptor, greater than 1000 nM; on human S1PR5 receptor, 10 to 100 nM.

For the compound `O=C(O)CCCN1CCc2nc(-c3ccc(OCc4ccc(Cl)cc4)cc3)ncc2C1` [Compound 40, 4-(2-(4-((4-chlorobenzyl)oxy)phenyl)-7,8-dihydropyrido[4,3-d]pyrimidin-6(5H)-yl)butanoic acid], the EC50 on human S1PR3 receptor is greater than 1000 nM; on human S1PR1 receptor it was greater than 1000 nM; at human S1PR4 receptor it was greater than 1000 nM; on human S1PR5 receptor, less than 10 nM.

`O=C(O)C1CC(N2CCc3nc(Cc4c(F)cccc4F)ncc3C2)C1` (stereo not drawn) [Compound 53, 3-(2-(2,6-difluorobenzyl)-7,8-dihydropyrido[4,3-d]pyrimidin-6(5H)-yl)cyclobutanecarboxylic acid]: the EC50 is greater than 1000 nM on human S1PR3 receptor, greater than 1000 nM on human S1PR1 receptor, greater than 1000 nM on human S1PR4 receptor and 1000 to 10000 nM on human S1PR5 receptor.

For `Cc1cc(COc2ccc(-c3ccc4c(n3)CCN(CCC(=O)O)C4)cc2)cc(OC(F)(F)F)c1` [Compound 160, 3-(2-(4-((3-trifluoromethoxy-5-(methyl)benzyl)oxy)phenyl)-7,8-dihydro-1,6-naphthyridin-6(5H)-yl)propanoic acid], the EC50 is greater than 1000 nM at human S1PR3 receptor, greater than 1000 nM at human S1PR1 receptor, greater than 1000 nM at human S1PR4 receptor and 10 to 100 nM on human S1PR5 receptor.

`CCc1cccc(Cl)c1COc1ccc(-c2ncc3c(n2)CCN(CC(=O)O)C3)cc1` [Compound 35, 2-(2-(4-((2-chloro-6-ethylbenzyl)oxy)phenyl)-7,8-dihydropyrido[4,3-d]pyrimidin-6(5H)-yl)acetic acid]: the EC50 is less than 1000 nM on human S1PR3 receptor, less than 1000 nM on human S1PR1 receptor, less than 1000 nM at human S1PR4 receptor and 100 to 1000 nM at human S1PR5 receptor.

Turning to `O=C(O)C1CC(N2CCc3nc(C#Cc4ccc(F)cc4)ccc3C2)C1` (stereo not drawn) [Compound 123, 3-(2-((4-fluorophenyl)ethynyl)-7,8-dihydro-1,6-naphthyridin-6(5H)-yl)cyclobutanecarboxylic acid], the EC50 at human S1PR3 receptor is greater than 1000 nM; at human S1PR1 receptor, greater than 1000 nM; at human S1PR4 receptor, greater than 1000 nM; at human S1PR5 receptor it was 1000 to 10000 nM.

As for `CC(CN1CCc2nc(-c3ccc(OCc4cc(Cl)cc(Cl)c4)cc3)ncc2C1)C(=O)O` (stereo not drawn) [Compound 17, 3-(2-(4-((3,5-dichlorobenzyl)oxy)phenyl)-7,8-dihydropyrido[4,3-d]pyrimidin-6(5H)-yl)-2-methylpropanoic acid], the EC50 on human S1PR3 receptor was greater than 1000 nM; at human S1PR1 receptor, greater than 1000 nM; on human S1PR4 receptor, greater than 1000 nM; at human S1PR5 receptor it was less than 10 nM.

Regarding `O=C(O)CCN1CCc2cc(OCc3c(Cl)cccc3Cl)ncc2C1` [Compound 219, 3-(6-((2,6-dichlorobenzyl)oxy)-3,4-dihydro-2,7-naphthyridin-2(1H)-yl)propanoic acid hydrochloride], the EC50 at human S1PR3 receptor was greater than 1000 nM; at human S1PR1 receptor, greater than 1000 nM; on human S1PR4 receptor, greater than 1000 nM; at human S1PR5 receptor, 100 to 1000 nM.

As to `O=C(O)CCN1CCc2nc(-c3ccc(OCc4cccc(F)c4)cc3)ccc2C1` [Compound 133, 3-(2-(4-((3-fluorobenzyl)oxy)phenyl)-7,8-dihydro-1,6-naphthyridin-6(5H)-yl)propanoic acid], the EC50 at human S1PR3 receptor is greater than 1000 nM; at human S1PR1 receptor it was greater than 1000 nM; at human S1PR4 receptor, greater than 1000 nM; on human S1PR5 receptor it was less than 10 nM.

`CC(CN1CCc2nc(-c3ccc(OCc4cccc(F)c4)cc3)ncc2C1)C(=O)O` (stereo not drawn) [Compound 8, 3-(2-(4-((3-fluorobenzyl)oxy)phenyl)-7,8-dihydropyrido[4,3-d]pyrimidin-6(5H)-yl)-2-methylpropanoic acid]: the EC50 at human S1PR3 receptor is greater than 1000 nM; at human S1PR1 receptor it was greater than 1000 nM; on human S1PR4 receptor it was greater than 1000 nM; at human S1PR5 receptor, less than 10 nM.

Turning to `Cc1ccc(COc2ccc(-c3ncc4c(n3)CCN(CC(C)CC(=O)O)C4)cc2)cc1` (stereo not drawn) [Compound 248, 3-methyl-4-(2-(4-((4-methylbenzyl)oxy)phenyl)-7,8-dihydropyrido[4,3-d]pyrimidin-6(5H)-yl)butanoic acid], the EC50 on human S1PR3 receptor was greater than 1000 nM; at human S1PR1 receptor, less than 1000 nM; at human S1PR4 receptor, greater than 1000 nM; on human S1PR5 receptor, less than 10 nM.

In the case of `Cc1cc(-c2ncc3c(n2)CCN(CC(C)CC(=O)O)C3)ccc1OCc1cccc(Cl)c1` (stereo not drawn) [Compound 252, 4-(2-(4-((3-chlorobenzyl)oxy)-3-methylphenyl)-7,8-dihydropyrido[4,3-d]pyrimidin-6(5H)-yl)-3-methylbutanoic acid], the EC50 on human S1PR3 receptor is greater than 1000 nM; on human S1PR1 receptor, greater than 1000 nM; on human S1PR4 receptor, greater than 1000 nM; at human S1PR5 receptor, less than 10 nM.

Turning to `CC(CC(=O)O)CN1CCc2nc(-c3ccc(OCc4cccc(Cl)c4)cc3)ncc2C1` (stereo not drawn) [Compound 22, 4-(2-(4-((3-chlorobenzyl)oxy)phenyl)-7,8-dihydropyrido[4,3-d]pyrimidin-6(5H)-yl)-3-methylbutanoic acid], the EC50 at human S1PR3 receptor is greater than 1000 nM; at human S1PR1 receptor it was greater than 1000 nM; on human S1PR4 receptor it was greater than 1000 nM; on human S1PR5 receptor it was less than 10 nM.

For `Cc1cccc(COc2ccc(-c3ncc4c(n3)CCN(CC(C)CC(=O)O)C4)c(F)c2)c1C` (stereo not drawn) [Compound 231, 4-[2-[4-[(2,3-dimethylphenyl)methoxy]-2-fluoro-phenyl]-7,8-dihydro-5H-pyrido[4,3-d]pyrimidin-6-yl]-3-methyl-butanoic acid 2,2,2-trifluoroacetic acid salt], the EC50 on human S1PR3 receptor is greater than 1000 nM; on human S1PR1 receptor, greater than 1000 nM; on human S1PR4 receptor it was greater than 1000 nM; on human S1PR5 receptor it was less than 10 nM.

Regarding `CC(CCC(=O)O)N1CCc2nc(-c3ccc(Cc4ccccc4)cc3)ncc2C1` (stereo not drawn) [Compound 214, 4-(2-(4-benzylphenyl)-7,8-dihydropyrido[4,3-d]pyrimidin-6(5H)-yl)pentanoic acid], the EC50 at human S1PR3 receptor is greater than 1000 nM; at human S1PR1 receptor, greater than 1000 nM; on human S1PR4 receptor, greater than 1000 nM; on human S1PR5 receptor, 1000 to 10000 nM.
